For assay [1], the system named is RKO (RKOp27) human colon adenocarcinoma cells. In words: Alamar Blue cell viability assay, anti-proliferative/cytotoxic activity on proliferating (uninduced) RKO p27 cells. Particulars: RKOp27, 72 h, proliferating cells without inducer Ponasterone A. The assay is classed as cell-based. In short, it runs like this:
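RKOp27 subclones (4000 cells/well) were seeded 24 h before treatment with semi-log compound dilutions in DMEM/10% FCS, in quadruplicate, for 72 h at 37° C. Alamar Blue fluorescence (544 nm excitation/590 nm emission) was normalised to untreated cells (100%), and IC50 values were taken from concentration-effect curves.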
Background: The colour change of resazurin is a common sign of viable cells or microbes.

Assay [2] deals with RKOp27 colon adenocarcinoma cells arrested by expression of ectopic p27Kip1. In words: Alamar Blue cell viability assay on RKO p27 cells arrested by Ponasterone A induced p27Kip1 (cell cycle specific mode of action). In kind it is cell-based. Particulars: Homo sapiens, 72 hours, cells arrested by p27Kip1 induced with 10 μM Ponasterone A. In short, it runs like this: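 RKOp27 cells, 16000 per well in DMEM/10% FCS, arrested by p27Kip1 induced with 10 μM Ponasterone A, then dosed 24 h later and incubated 72 h at 37° C, quadruplicates. Alamar Blue fluorescence (544/590 nm) gave viability as % of untreated cells, set against proliferating cells grown without inducer.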

A word on the IC50: it is the midpoint of a concentration-inhibition curve. Regarding `COc1ccccc1CCC(=O)Nc1sc2c(c1C#N)CCN(C(=O)OC(C)(C)C)C2` [Example 10, 3-Cyano-2-[3-(2-methoxy-phenyl)-propanoylamino]-4,7-dihydro-5H-thieno[2,3-c]pyridine-6-carboxylic acid tert-butyl ester], the concentration for half-maximal inhibition (IC50) was at most 300 nM in assay [1] and over 100000 nM in assay [2].
The matching figures for `CCOC(=O)N1CCc2c(sc(NC(=O)CCc3ccc(OC)cc3)c2C#N)C1` [Example 1, 3-Cyano-2-[3-(4-methoxy-phenyl)-propanoylamino]-4,7-dihydro-5H-thieno[2,3-c]pyridine-6-carboxylic acid ethyl ester]: at most 300 nM and over 100000 nM.
`COc1cccc(CCC(=O)Nc2sc3c(c2C#N)CCN(C(=O)OCCO)C3)c1` [Example 53, 3-Cyano-2-[3-(3-methoxy-phenyl)-propanoylamino]-4,7-dihydro-5H-thieno[2,3-c]pyridine-6-carboxylic acid 2-hydroxy-ethyl ester]: the IC50 in assay [1] was 300 to 2000 nM; in assay [2], over 100000 nM.
The matching figures for `CCOC(=O)N1CCc2c(sc(NC(=O)CCc3cccc(OCC)c3OCC)c2C#N)C1` [Example 16, 3-Cyano-2-[3-(2,3-diethoxy-phenyl)-propanoylamino]-4,7-dihydro-5H-thieno[2,3-c]pyridine-6-carboxylic acid ethyl ester]: 300 to 2000 nM and over 100000 nM.
On to `CCOC(=O)N1CCc2c(sc(NC(=O)CCc3cccc(OC)c3OC)c2C#N)C1` [Example 6, 3-Cyano-2-[3-(2,3-dimethoxy-phenyl)-propanoylamino]-4,7-dihydro-5H-thieno[2,3-c]pyridine-6-carboxylic acid ethyl ester], for which the concentration for half-maximal inhibition (IC50) in assay [1] was 300 to 2000 nM; in assay [2], over 100000 nM.
For `CCOC(=O)N1CCc2c(sc(NC(=O)CCc3cc(Br)cc(OC)c3OC)c2C#N)C1` [Example 14, 2-[3-(5-Bromo-2,3-dimethoxy-phenyl)-propanoylamino]-3-cyano-4,7-dihydro-5H-thieno[2,3-c]pyridine-6-carboxylic acid ethyl ester], the 50% inhibitory concentration (IC50) in assay [1] was at most 300 nM; in assay [2], over 100000 nM.
For `COc1ccc(OC)c(CCC(=O)Nc2sc3c(c2C#N)CCN(C(=O)OCCO)C3)c1` [Example 46, 3-Cyano-2-[3-(2,5-dimethoxy-phenyl)-propanoylamino]-4,7-dihydro-5H-thieno[2,3-c]pyridine-6-carboxylic acid 2-hydroxy-ethyl ester] the same measures were 300 to 2000 nM and over 100000 nM.
The matching figures for `CCOc1ccccc1CCC(=O)Nc1sc2c(c1C#N)CCN(C(=O)OC(C)(C)C)C2` [Example 9, 3-Cyano-2-[3-(2-ethoxy-phenyl)-propanoylamino]-4,7-dihydro-5H-thieno[2,3-c]pyridine-6-carboxylic acid tert-butyl ester]: at most 300 nM and over 100000 nM.
For `CCOC(=O)N1CCc2c(sc(NC(=O)CCc3cccc(OC)c3)c2C#N)C1` [Example 2, 3-Cyano-2-[3-(3-methoxy-phenyl)-propanoylamino]-4,7-dihydro-5H-thieno[2,3-c]pyridine-6-carboxylic acid ethyl ester] the same measures were at most 300 nM and over 100000 nM.
For the molecule `CCOc1ccccc1CCC(=O)Nc1sc2c(c1C#N)CCN(C(=O)OCc1cccnc1)C2` [Example 42, 3-Cyano-2-[3-(2-ethoxy-phenyl)-propanoylamino]-4,7-dihydro-5H-thieno[2,3-c]pyridine-6-carboxylic acid pyridin-3-ylmethyl ester], the IC50 in assay [1] was at most 300 nM; in assay [2] it was over 100000 nM.
With `CCOC(=O)N1CCc2c(sc(NC(=O)CCc3ccccc3OCC)c2C#N)C1` [Example 19, 3-Cyano-2-[3-(2-ethoxyphenyl)-propanoylamino]-4,7-dihydro-5H-thieno[2,3-c]-pyridine-6-carboxylic acid ethyl ester], the IC50 in assay [1] was at most 300 nM; in assay [2], over 100000 nM.
For `COCCOC(=O)N1CCc2c(sc(NC(=O)CCc3cccc(OC)c3)c2C#N)C1` [Example 45, 3-Cyano-2-[3-(3-methoxy-phenyl)-propanoylamino]-4,7-dihydro-5H-thieno[2,3-c]pyridine-6-carboxylic acid 2-methoxy-ethyl ester] the same measures were at most 300 nM and over 100000 nM.
The matching figures for `COc1ccc(C)cc1CCC(=O)Nc1sc2c(c1C#N)CCN(C(=O)OCCN1CCOCC1)C2` [Example 56, 3-Cyano-2-[3-(2-methoxy-5-methyl-phenyl)-propanoylamino]-4,7-dihydro-5H-thieno[2,3-c]pyridine-6-carboxylic acid 2-morpholin-4-yl-ethyl ester]: 300 to 2000 nM and over 100000 nM.
For `COc1cccc(CCC(=O)Nc2sc3c(c2C#N)CCN(C(=O)OC(C)(C)C)C3)c1` [Example 11, 3-Cyano-2-[3-(3-methoxy-phenyl)-propanoylamino]-4,7-dihydro-5H-thieno[2,3-c]pyridine-6-carboxylic acid tert-butyl ester] the same measures were at most 300 nM and over 100000 nM.
Regarding `COc1ccccc1CCC(=O)Nc1sc2c(c1C#N)CCN(C(=O)OCCn1ccnc1)C2` [Example 73, 3-Cyano-2-[3-(2-methoxy-phenyl)-propanoylamino]-4,7-dihydro-5H-thieno[2,3-c]pyridine-6-carboxylic acid 2-imidazol-1-yl-ethyl ester], the IC50 in assay [1] was at most 300 nM; in assay [2] it was over 100000 nM.
The matching figures for `COc1ccccc1CCC(=O)Nc1sc2c(c1C#N)CCN(C(=O)OCCOCc1ccccc1)C2` [Example 24, 3-Cyano-2-[3-(2-methoxy-phenyl)-propanoylamino]-4,7-dihydro-5H-thieno[2,3-c]pyridine-6-carboxylic acid 2-benzyloxy-ethyl ester]: 300 to 2000 nM and over 100000 nM.
The matching figures for `COc1cccc(CCC(=O)Nc2sc3c(c2C#N)CCN(C(=O)OCCc2cccnc2)C3)c1` [Example 63, 3-Cyano-2-[3-(3-methoxy-phenyl)-propanoylamino]-4,7-dihydro-5H-thieno[2,3-c]pyridine-6-carboxylic acid 2-pyridin-3-yl-ethyl ester]: at most 300 nM and at least 40000 nM.
